Reference: patent US20260265238A1, “COMPOUNDS AND PHARMACEUTICAL COMPOSITIONS THAT DEGRADE SWI/SNF-RELATED MATRIX-ASSOCIATED ACTIN-DEPENDENT REGULATOR OF CHROMATIN SUBFAMILY A” (Plexium, Inc., priority 2023, published 2026)

Experiments:
[1] = target: T1, SMARCA2-HiBiT HeLa cells (protein which is expressed from the SMARCA2 gene) (Homo sapiens, UniProt P51531); test: SMARCA2 degradation assay (HiBiT-fusion HeLa cell line, 24 h, luminescence); format: cell-based
T1 construct: protein which is expressed from the SMARCA2 and SMARCA4 genes; host or cells: HeLa (SMARCA2-HiBiT engineered line)
In short: (§1)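 SMARCA2- or SMARCA4-HiBiT HeLa cells seeded overnight at 37° C, then given compound as a 10-point dilution (typically 10 μM to 300 pM) for 24 h at 37° C. Protein level read by HiBiT lytic detection luminescence; DC50 from dose-response curves; degradation also scored at 1 μM.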

[2] = target: T2, SMARCA4-HiBiT HeLa cells (protein which is expressed from the SMARCA4 gene) (Homo sapiens, UniProt P51532); test: SMARCA4 degradation assay (HiBiT-fusion HeLa cell line, 24 h, luminescence); format: cell-based
T2 construct: protein which is expressed from the SMARCA2 and SMARCA4 genes; host or cells: HeLa (SMARCA4-HiBiT engineered line)
In short: as §1

T1 sequence (P51531 whole entry, the tested form may be a part): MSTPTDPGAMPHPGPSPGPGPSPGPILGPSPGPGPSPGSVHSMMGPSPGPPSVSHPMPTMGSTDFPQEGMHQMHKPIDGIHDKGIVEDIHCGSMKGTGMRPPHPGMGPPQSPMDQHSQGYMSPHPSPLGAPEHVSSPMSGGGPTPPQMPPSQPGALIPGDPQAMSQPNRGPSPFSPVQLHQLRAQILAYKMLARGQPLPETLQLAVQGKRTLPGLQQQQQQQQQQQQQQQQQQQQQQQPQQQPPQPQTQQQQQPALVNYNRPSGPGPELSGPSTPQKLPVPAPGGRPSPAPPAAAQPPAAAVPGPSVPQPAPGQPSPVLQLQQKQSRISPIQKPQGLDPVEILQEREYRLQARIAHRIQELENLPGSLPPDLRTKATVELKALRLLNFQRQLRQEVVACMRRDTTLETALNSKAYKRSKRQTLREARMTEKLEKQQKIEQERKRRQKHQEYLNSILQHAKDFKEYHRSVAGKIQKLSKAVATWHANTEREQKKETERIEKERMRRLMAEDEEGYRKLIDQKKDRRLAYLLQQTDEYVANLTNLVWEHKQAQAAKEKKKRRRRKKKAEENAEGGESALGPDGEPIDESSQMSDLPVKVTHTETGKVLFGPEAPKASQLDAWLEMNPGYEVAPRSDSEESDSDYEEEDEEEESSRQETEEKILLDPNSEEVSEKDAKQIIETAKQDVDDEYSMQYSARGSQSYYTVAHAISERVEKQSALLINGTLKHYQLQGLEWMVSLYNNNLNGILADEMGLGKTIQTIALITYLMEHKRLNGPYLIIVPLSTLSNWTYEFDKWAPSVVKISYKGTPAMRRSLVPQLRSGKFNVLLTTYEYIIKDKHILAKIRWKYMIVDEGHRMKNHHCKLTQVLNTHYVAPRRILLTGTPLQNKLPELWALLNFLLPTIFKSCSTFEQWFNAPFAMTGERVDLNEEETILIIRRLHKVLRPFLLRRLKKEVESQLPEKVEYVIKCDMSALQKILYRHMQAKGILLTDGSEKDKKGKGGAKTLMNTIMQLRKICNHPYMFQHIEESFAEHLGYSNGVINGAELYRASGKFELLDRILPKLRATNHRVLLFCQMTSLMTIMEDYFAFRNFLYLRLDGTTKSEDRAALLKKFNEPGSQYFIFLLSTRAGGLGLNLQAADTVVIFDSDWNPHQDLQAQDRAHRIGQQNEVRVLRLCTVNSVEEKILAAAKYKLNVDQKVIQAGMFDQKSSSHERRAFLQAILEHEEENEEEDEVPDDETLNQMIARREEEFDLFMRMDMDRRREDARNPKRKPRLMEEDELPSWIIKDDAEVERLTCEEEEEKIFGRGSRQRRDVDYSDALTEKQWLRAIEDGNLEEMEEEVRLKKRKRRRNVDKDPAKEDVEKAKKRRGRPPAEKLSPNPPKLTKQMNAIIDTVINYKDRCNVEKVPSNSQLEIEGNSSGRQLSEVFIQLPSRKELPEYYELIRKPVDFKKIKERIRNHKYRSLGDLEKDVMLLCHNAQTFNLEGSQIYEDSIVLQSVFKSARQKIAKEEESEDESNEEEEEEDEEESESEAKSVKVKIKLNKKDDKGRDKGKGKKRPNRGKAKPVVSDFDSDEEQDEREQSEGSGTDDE
T2 sequence (P51532 whole entry, the tested form may be a part): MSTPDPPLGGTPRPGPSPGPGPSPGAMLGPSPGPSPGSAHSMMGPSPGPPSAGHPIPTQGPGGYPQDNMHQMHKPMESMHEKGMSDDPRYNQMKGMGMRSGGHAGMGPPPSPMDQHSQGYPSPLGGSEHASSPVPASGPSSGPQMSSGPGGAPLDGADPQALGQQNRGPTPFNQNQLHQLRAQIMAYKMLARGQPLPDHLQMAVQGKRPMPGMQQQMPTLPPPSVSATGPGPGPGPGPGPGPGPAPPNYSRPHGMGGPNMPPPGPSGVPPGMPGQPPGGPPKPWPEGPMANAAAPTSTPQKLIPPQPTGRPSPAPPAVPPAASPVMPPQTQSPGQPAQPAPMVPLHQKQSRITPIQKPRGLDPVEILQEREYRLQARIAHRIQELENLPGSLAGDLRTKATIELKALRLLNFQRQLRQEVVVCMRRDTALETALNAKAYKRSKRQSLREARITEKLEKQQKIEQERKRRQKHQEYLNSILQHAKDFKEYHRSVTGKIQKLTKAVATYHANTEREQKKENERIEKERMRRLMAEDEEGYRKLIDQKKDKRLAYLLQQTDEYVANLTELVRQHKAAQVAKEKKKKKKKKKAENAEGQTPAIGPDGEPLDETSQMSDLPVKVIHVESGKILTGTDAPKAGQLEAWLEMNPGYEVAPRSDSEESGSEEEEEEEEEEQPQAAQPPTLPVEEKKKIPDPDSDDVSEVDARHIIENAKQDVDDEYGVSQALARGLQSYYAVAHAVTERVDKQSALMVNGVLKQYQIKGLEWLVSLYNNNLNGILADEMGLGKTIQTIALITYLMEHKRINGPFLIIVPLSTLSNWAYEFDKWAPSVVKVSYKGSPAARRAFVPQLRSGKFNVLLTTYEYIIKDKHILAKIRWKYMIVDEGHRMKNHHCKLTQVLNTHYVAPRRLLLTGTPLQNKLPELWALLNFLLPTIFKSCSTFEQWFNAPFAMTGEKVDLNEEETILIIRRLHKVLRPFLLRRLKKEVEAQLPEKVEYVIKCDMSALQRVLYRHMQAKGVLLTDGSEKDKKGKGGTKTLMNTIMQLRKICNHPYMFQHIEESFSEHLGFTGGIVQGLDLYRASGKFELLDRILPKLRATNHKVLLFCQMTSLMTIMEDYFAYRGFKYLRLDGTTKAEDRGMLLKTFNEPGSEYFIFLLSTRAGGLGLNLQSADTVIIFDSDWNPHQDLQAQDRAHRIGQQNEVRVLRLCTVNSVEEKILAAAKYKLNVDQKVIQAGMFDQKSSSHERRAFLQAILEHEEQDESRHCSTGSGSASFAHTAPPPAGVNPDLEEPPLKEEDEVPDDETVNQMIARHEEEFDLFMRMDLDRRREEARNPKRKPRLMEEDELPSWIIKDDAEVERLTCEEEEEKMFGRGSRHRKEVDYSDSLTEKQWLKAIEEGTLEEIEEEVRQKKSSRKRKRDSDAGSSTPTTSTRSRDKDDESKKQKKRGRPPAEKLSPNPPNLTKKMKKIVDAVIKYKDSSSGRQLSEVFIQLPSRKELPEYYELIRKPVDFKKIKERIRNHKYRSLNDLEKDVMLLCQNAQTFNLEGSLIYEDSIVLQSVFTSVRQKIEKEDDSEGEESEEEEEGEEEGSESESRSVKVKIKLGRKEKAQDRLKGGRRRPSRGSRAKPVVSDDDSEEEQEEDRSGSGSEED

SMILES	DC50 [1]	SMARCA2 % Degradation @ 1 μM [1]	DC50 [2]	inhibition at 1 µM [2]
CSCC#Cc1nccc(N2CCCN(c3cc(-c4ccccc4O)nnc3N)CC2)n1 [Compound P-323, 0-[6-amino-5-(4-{2-[3-(methylthio)-1-propynyl]-4-pyrimidinyl}-1,4-diazepan-1-yl)-3-pyridazinyl]phenol]	0.05 to 0.5 µM	++ (++=30-70%)	0.05 to 0.5 µM	30 to 70%
Nc1nnc(-c2ccccc2O)cc1N1CCCN(c2ccnc(C#CCn3ccc(-c4ccccn4)n3)n2)CC1 [Compound P-138, 2-(6-amino-5-(4-(2-(3-(3-(pyridin-2-yl)-1H-pyrazol-1-yl)prop-1-yn-1-yl)pyrimidin-4-yl)-1,4-diazepan-1-yl)pyridazin-3-yl)phenol]	0.05 to 0.5 µM	+++ (+++=>70%)	0.05 to 0.5 µM	30 to 70%
C[C@@H]1CCN(c2cc(-c3ccccc3O)nnc2N)CCN1c1ccnc(C#CC2CN(C)C2)n1 [Compound P-192, o-{5-[(R)-5-methyl-4-{2-[2-(1-methyl-3-azetidinyl)ethynyl]-4-pyrimidinyl}-1,4-diazepan-1-y1]-6-amino-3-pyridaziny1} phenol]	< 0.05 µM	+++ (+++=>70%)	0.05 to 0.5 µM	30 to 70%
CN(C)CC#Cc1ncc(F)c(N2C3CCC2CN(c2cc(-c4ccccc4O)nnc2N)C3)n1 [Compound P-225, o-[6-amino-5-(8-{2-[3-(dimethylamino)-1-propynyl]-5-fluoro-4-pyrimidinyl}-3,8-diazabicyclo[3.2.1]oct-3-yl)-3-pyridazinyl]phenol]	< 0.05 µM	++ (++=30-70%)	< 0.05 µM	30 to 70%
Cc1cnc(C#CCn2ccnc2)nc1N1CCN(c2cc(-c3ccccc3O)nnc2N)CC[C@H]1C [Compound P-227, o-{5-[(R)-4-{2-[3-(1-imidazolyl)-1-propynyl]-5-methyl-4-pyrimidinyl}-5-methyl-1,4-diazepan-1-yl]-6-amino-3-pyridaziny1} phenol]	0.05 to 0.5 µM	+++ (+++=>70%)	0.05 to 0.5 µM	30 to 70%
C[C@@H]1CCN(c2cc(-c3ccccc3O)nnc2N)CCN1c1ccnc(C#C[C@@H](O)C2CC2)n1 [Compound P-265, o-{5-[(R)-4-{2-[(S)-3-cyclopropyl-3-hydroxy-1-propynyl]-4-pyrimidinyl}-5-methyl-1,4-diazepan-1-yl]-6-amino-3-pyridaziny1} phenol]	0.05 to 0.5 µM	+++ (+++=>70%)	0.05 to 0.5 µM	> 70%
Nc1nnc(-c2ccccc2O)cc1N1CCCN(c2ccnc(C#CCN3CCOC4(CCCC4)C3)n2)CC1 [Compound P-370, 0-{6-amino-5-[4-(2-{3-(6-oxa-9-aza-9-spiro[4.5]decyl)-1-propynyl}-4-pyrimidinyl)-1,4-diazepan-1-yl]-3-pyridazinyl}phenol]	0.05 to 0.5 µM	+++ (+++=>70%)	0.05 to 0.5 µM	30 to 70%
Nc1nnc(-c2ccccc2O)cc1N1C[C@@H]2C[C@H]1CN2c1ccnc(C#CCNC(=O)c2cc3ncccn3n2)n1 [Compound P-30, N-(3-(4-((1S,4S)-5-(3-amino-6-(2-hydroxyphenyl)pyridazin-4-yl)-2,5-diazabicyclo[2.2.1]heptan-2-yl)pyrimidin-2-yl)prop-2-yn-1-yl)pyrazolo[1,5-a]pyrimidine-2-carboxamide]	0.5 to 5 µM	++ (++=30-70%)	0.5 to 5 µM	30 to 70%
Nc1nnc(-c2ccccc2O)cc1N1CC2CCC(C1)N2c1nc(C#CCn2ccnc2)ncc1F [Compound P-224, o-[6-amino-5-(8-{5-fluoro-2-[3-(1-imidazolyl)-1-propynyl]-4-pyrimidinyl}-3,8-diazabicyclo[3.2.1]oct-3-yl)-3-pyridazinyl]phenol]	0.05 to 0.5 µM	+++ (+++=>70%)	0.05 to 0.5 µM	> 70%
Cc1oncc1C(=O)NCC#Cc1nccc(N2CCN(c3cc(-c4ccccc4O)nnc3N)CC2)n1 [Compound P-3, N-[3-(4-{4-[3-amino-6-(2-hydroxyphenyl)pyridazin-4-yl]piperazin-1-yl}pyrimidin-2-yl)prop-2-yn-1-yl]-5-methyl-1,2-oxazole-4-carboxamide]	0.05 to 0.5 µM	++ (++=30-70%)	0.05 to 0.5 µM	30 to 70%
Nc1nnc(-c2ccccc2O)cc1N1CCN(c2ccnc(C#CCNC(=O)c3cccnc3)n2)CC1 [Compound P-4, N-[3-(4-{4-[3-amino-6-(2-hydroxyphenyl)pyridazin-4-yl]piperazin-1-yl}pyrimidin-2-yl)prop-2-yn-1-yl]pyridine-3-carboxamide]	0.05 to 0.5 µM	++ (++=30-70%)	0.05 to 0.5 µM	< 30%
